# Measured values reported in PubChem BioAssay AID2060600 (Molecular Pharmacology Branch, DTP, NCI, 2025).
# System: 996289-038-R-J1-PDC complex spheroid viability
# Assay: Anticancer human tumor 996289-038-R-J1-PDC patient-derived colon adenocarcinoma cell line growth inhibition [CLK]
# Details: for IC50: curve of first compound; for viability, T/C: stronger effect = lower value
# How it was run: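 Multi-cell-type spheroids combined patient-derived tumor cells with HUVEC endothelial cells and human mesenchymal stem cells. Paired agents were dosed in half-log steps down from about clinical Cmax, or from 10 microM where Cmax was unknown.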
# [1] = second compound 0.0316 µM, first compound 0.0316 µM
# [2] = second compound 0.0316 µM, first compound 0.1 µM
# [3] = second compound 0.1 µM, first compound 0.0316 µM
# [4] = second compound 0.1 µM, first compound 0.1 µM
# [5] = second compound 0.316 µM, first compound 0.0316 µM
# [6] = second compound 0.316 µM, first compound 0.1 µM
# [7] = second compound 1 µM, first compound 0.0316 µM
# [8] = second compound 1 µM, first compound 0.1 µM
# [9] = second compound 3.16 µM, first compound 0.0316 µM
# [10] = second compound 3.16 µM, first compound 0.1 µM
# [11] = second compound 10 µM, first compound 0.0316 µM
# [12] = second compound 10 µM, first compound 0.1 µM
# [13] = second compound 0.0316 µM, first compound 0.316 µM
# [14] = second compound 0.0316 µM, first compound 1 µM
# [15] = second compound 0.0316 µM, first compound 3.16 µM
# [16] = second compound 0.0316 µM, first compound 10 µM
# [17] = second compound 0.1 µM, first compound 0.316 µM
# [18] = second compound 0.1 µM, first compound 1 µM
# [19] = second compound 0.1 µM, first compound 3.16 µM
# [20] = second compound 0.1 µM, first compound 10 µM
# [21] = second compound 0.316 µM, first compound 0.316 µM
# [22] = second compound 0.316 µM, first compound 1 µM
# [23] = second compound 0.316 µM, first compound 3.16 µM
# [24] = second compound 0.316 µM, first compound 10 µM
# [25] = second compound 1 µM, first compound 0.316 µM
# [26] = second compound 1 µM, first compound 1 µM
# [27] = second compound 1 µM, first compound 3.16 µM
# [28] = second compound 1 µM, first compound 10 µM
# [29] = second compound 3.16 µM, first compound 0.316 µM
# [30] = second compound 3.16 µM, first compound 1 µM
# [31] = second compound 3.16 µM, first compound 3.16 µM
# [32] = second compound 3.16 µM, first compound 10 µM
# [33] = second compound 10 µM, first compound 0.316 µM
# [34] = second compound 10 µM, first compound 1 µM
# [35] = second compound 10 µM, first compound 3.16 µM
# [36] = second compound 10 µM, first compound 10 µM
# 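Also: spheroids exposed to the agents for 7 days before readout.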
smiles,measurement,setting,value
Cn1ncnc1[C@H]1c2n[nH]c(=O)c3cc(F)cc(c23)N[C@@H]1c1ccc(F)cc1 + CNC(=O)c1ccc(Nc2nc(OC3CCCC3)c3c(-c4ccc5nc(C)oc5c4)c[nH]c3n2)c(OC)c1,IC50,second compound 0.0316 µM,> 100 nM
same,IC50,second compound 0.1 µM,> 100 nM
same,IC50,second compound 0.316 µM,> 100 nM
same,IC50,second compound 1 µM,> 100 nM
same,IC50,second compound 3.16 µM,> 100 nM
same,IC50,second compound 10 µM,> 100 nM
same,"viability, T/C","second compound 0.0316 µM, first compound 0.000316 µM",127%
same,"viability, T/C","second compound 0.0316 µM, first compound 0.001 µM",114%
same,"viability, T/C","second compound 0.0316 µM, first compound 0.00316 µM",118%
same,"viability, T/C","second compound 0.0316 µM, first compound 0.01 µM",124%
same,"viability, T/C",[1],133%
same,"viability, T/C",[2],108%
same,"viability, T/C","second compound 0.1 µM, first compound 0.000316 µM",127%
same,"viability, T/C","second compound 0.1 µM, first compound 0.001 µM",124%
same,"viability, T/C","second compound 0.1 µM, first compound 0.00316 µM",128%
same,"viability, T/C","second compound 0.1 µM, first compound 0.01 µM",134%
same,"viability, T/C",[3],124%
same,"viability, T/C",[4],105%
same,"viability, T/C","second compound 0.316 µM, first compound 0.000316 µM",86.6%
same,"viability, T/C","second compound 0.316 µM, first compound 0.001 µM",80.5%
same,"viability, T/C","second compound 0.316 µM, first compound 0.00316 µM",81.6%
same,"viability, T/C","second compound 0.316 µM, first compound 0.01 µM",78.8%
same,"viability, T/C",[5],80.9%
same,"viability, T/C",[6],74.9%
same,"viability, T/C","second compound 1 µM, first compound 0.000316 µM",74.8%
same,"viability, T/C","second compound 1 µM, first compound 0.001 µM",67.4%
same,"viability, T/C","second compound 1 µM, first compound 0.00316 µM",65.7%
same,"viability, T/C","second compound 1 µM, first compound 0.01 µM",64%
same,"viability, T/C",[7],65.5%
same,"viability, T/C",[8],58.6%
same,"viability, T/C","second compound 3.16 µM, first compound 0.000316 µM",63.7%
same,"viability, T/C","second compound 3.16 µM, first compound 0.001 µM",59.3%
same,"viability, T/C","second compound 3.16 µM, first compound 0.00316 µM",59%
same,"viability, T/C","second compound 3.16 µM, first compound 0.01 µM",58.5%
same,"viability, T/C",[9],63.7%
same,"viability, T/C",[10],55%
same,"viability, T/C","second compound 10 µM, first compound 0.000316 µM",66.1%
same,"viability, T/C","second compound 10 µM, first compound 0.001 µM",60.4%
same,"viability, T/C","second compound 10 µM, first compound 0.00316 µM",59.7%
same,"viability, T/C","second compound 10 µM, first compound 0.01 µM",63%
same,"viability, T/C",[11],63%
same,"viability, T/C",[12],55.7%
Nc1ccn(C2OC(CO)C(O)C2(F)F)c(=O)n1 (stereo unspecified) + CNC(=O)c1ccc(Nc2nc(OC3CCCC3)c3c(-c4ccc5nc(C)oc5c4)c[nH]c3n2)c(OC)c1,IC50,second compound 0.0316 µM,> 10000 nM
same,IC50,second compound 0.1 µM,> 10000 nM
same,IC50,second compound 0.316 µM,> 10000 nM
same,IC50,second compound 1 µM,1230 nM
same,IC50,second compound 3.16 µM,674 nM
same,IC50,second compound 10 µM,639 nM
same,"viability, T/C",[1],93.1%
same,"viability, T/C",[2],82.7%
same,"viability, T/C",[13],67.1%
same,"viability, T/C",[14],70%
same,"viability, T/C",[15],65.1%
same,"viability, T/C",[16],56.4%
same,"viability, T/C",[3],108%
same,"viability, T/C",[4],85.3%
same,"viability, T/C",[17],67.9%
same,"viability, T/C",[18],68%
same,"viability, T/C",[19],66.7%
same,"viability, T/C",[20],54.9%
same,"viability, T/C",[5],79.8%
same,"viability, T/C",[6],70.5%
same,"viability, T/C",[21],65.4%
same,"viability, T/C",[22],56.1%
same,"viability, T/C",[23],55.3%
same,"viability, T/C",[24],52.2%
same,"viability, T/C",[7],68.8%
same,"viability, T/C",[8],63.4%
same,"viability, T/C",[25],54.6%
same,"viability, T/C",[26],50%
same,"viability, T/C",[27],48.9%
same,"viability, T/C",[28],41.4%
same,"viability, T/C",[9],65.3%
same,"viability, T/C",[10],54.2%
same,"viability, T/C",[29],52.6%
same,"viability, T/C",[30],49.3%
same,"viability, T/C",[31],47.2%
same,"viability, T/C",[32],36.9%
same,"viability, T/C",[11],61.5%
same,"viability, T/C",[12],57.6%
same,"viability, T/C",[33],48.4%
same,"viability, T/C",[34],49.4%
same,"viability, T/C",[35],46.9%
same,"viability, T/C",[36],35.2%
O=c1[nH]cc(F)c(=O)[nH]1 + CNC(=O)c1ccc(Nc2nc(OC3CCCC3)c3c(-c4ccc5nc(C)oc5c4)c[nH]c3n2)c(OC)c1,IC50,second compound 0.0316 µM,> 10000 nM
same,IC50,second compound 0.1 µM,> 10000 nM
same,IC50,second compound 0.316 µM,> 10000 nM
same,IC50,second compound 1 µM,3470 nM
same,IC50,second compound 3.16 µM,3470 nM
same,IC50,second compound 10 µM,1600 nM
same,"viability, T/C",[1],108%
same,"viability, T/C",[2],111%
same,"viability, T/C",[13],87.5%
same,"viability, T/C",[14],86.6%
same,"viability, T/C",[15],86.1%
same,"viability, T/C",[16],77.8%
same,"viability, T/C",[3],122%
same,"viability, T/C",[4],105%
same,"viability, T/C",[17],86.1%
same,"viability, T/C",[18],82.1%
same,"viability, T/C",[19],81.3%
same,"viability, T/C",[20],74.5%
same,"viability, T/C",[5],80.8%
same,"viability, T/C",[6],77%
same,"viability, T/C",[21],72.5%
same,"viability, T/C",[22],69.6%
same,"viability, T/C",[23],63.8%
same,"viability, T/C",[24],59.1%
same,"viability, T/C",[7],62.9%
same,"viability, T/C",[8],61.2%
same,"viability, T/C",[25],59.5%
same,"viability, T/C",[26],53.6%
same,"viability, T/C",[27],50.3%
same,"viability, T/C",[28],45.5%
same,"viability, T/C",[9],61.9%
same,"viability, T/C",[10],60%
same,"viability, T/C",[29],55.8%
same,"viability, T/C",[30],51%
same,"viability, T/C",[31],53.3%
same,"viability, T/C",[32],46.1%
same,"viability, T/C",[11],60.4%
same,"viability, T/C",[12],53.9%
same,"viability, T/C",[33],59.2%
same,"viability, T/C",[34],48%
same,"viability, T/C",[35],47.5%
same,"viability, T/C",[36],46.7%
